This assay has as its system P388 leukemia ip, CD2F1 mice, survival T/C. The experiment in a line: NCI In Vivo Anticancer Drug Screen. Data for tumor model P388 Leukemia (intraperitoneal) in CD2F1 (CDF1) mice. The settings on record: endpoint: median survival time, higher = longer survival. In short, it runs like this: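 Mice carrying the transplanted tumor received test compound or vehicle. Survival was recorded in each group, and the value is the treated-group measurement divided by that of the vehicle-treated control group.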

Where [1] appears, read: dose: 12.5 mg/kg/injection, schedule: Q01DX009 (ip), vehicle: saline with Tween-80.
[2] abbreviates: dose: 25.0 mg/kg/injection, schedule: Q01DX009 (ip), vehicle: saline with Tween-80.
Setting [3] is: dose: 50.0 mg/kg/injection, schedule: Q01DX009 (ip), vehicle: saline with Tween-80.
Where [4] appears, read: dose: 100.0 mg/kg/injection, schedule: Q01DX009 (ip), vehicle: saline with Tween-80.
Where [5] appears, read: dose: 200.0 mg/kg/injection, schedule: Q01DX009 (ip), vehicle: saline with Tween-80.
[6] abbreviates: dose: 50.0 mg/kg/injection, schedule: Q01DX005 (ip), vehicle: Klucel (hydroxypropylcellulose) (HPC).
The mark [7] stands for this setting: dose: 100.0 mg/kg/injection, schedule: Q01DX005 (ip), vehicle: Klucel (hydroxypropylcellulose) (HPC).
[8] abbreviates: dose: 200.0 mg/kg/injection, schedule: Q01DX005 (ip), vehicle: Klucel (hydroxypropylcellulose) (HPC).

Where “and” joins values, the source holds several entries; their conditions need not be identical. Equal values may be shown once. Inconclusive results and toxic doses are left out.

`C=C1C(=O)O[C@@H]2/C=C(\C)CC/C=C(/COC(C)=O)C[C@@H](OC(C)=O)[C@@H]12`: the T/C was 97 % of control (dose: 6.25 mg/kg/injection, schedule: Q01DX009 (ip), vehicle: saline with Tween-80); 106 % of control (dose: 9.0 mg/kg/injection, schedule: Q01DX009 (ip), vehicle: acetone); 103 % of control under setting [1]; 106 % of control (dose: 18.0 mg/kg/injection, schedule: Q01DX009 (ip), vehicle: acetone); 106 % of control under setting [2]; 109 % of control (dose: 36.0 mg/kg/injection, schedule: Q01DX009 (ip), vehicle: acetone). Besides, the T/C (dose: 72.0 mg/kg/injection, schedule: Q01DX009 (ip), vehicle: acetone) was 124 % of control.

With `c1onc2cc3c(cc12)OCO3`, the T/C is 86 % of control and 88 % of control (dose: 0.39 mg/kg/injection, schedule: Q01DX009 (ip), vehicle: Klucel (hydroxypropylcellulose) (HPC)); 89 % of control and 95 % of control (dose: 0.78 mg/kg/injection, schedule: Q01DX009 (ip), vehicle: Klucel (hydroxypropylcellulose) (HPC)); 124 % of control and 89 % of control and 93 % of control (dose: 1.56 mg/kg/injection, schedule: Q01DX009 (ip), vehicle: Klucel (hydroxypropylcellulose) (HPC)); 99 % of control and 92 % of control (dose: 3.13 mg/kg/injection, schedule: Q01DX009 (ip), vehicle: Klucel (hydroxypropylcellulose) (HPC)); 89 % of control (dose: 12.5 mg/kg/injection, schedule: Q01DX009 (ip), vehicle: Klucel (hydroxypropylcellulose) (HPC)); 93 % of control (dose: 25.0 mg/kg/injection, schedule: Q01DX009 (ip), vehicle: Klucel (hydroxypropylcellulose) (HPC)).

For the molecule `O=c1cc[nH]cc1[N+](=O)[O-]`, the T/C (dose: 12.5 mg/kg/injection, schedule: Q01DX009 (ip), vehicle: distilled water + Tween-80) is 93 % of control; the T/C (dose: 25.0 mg/kg/injection, schedule: Q01DX009 (ip), vehicle: distilled water + Tween-80) was 98 % of control; the T/C under setting [2] is 99 % of control; the T/C (dose: 50.0 mg/kg/injection, schedule: Q01DX009 (ip), vehicle: distilled water + Tween-80) is 108 % of control; the T/C under setting [3] is 98 % of control; the T/C (dose: 100.0 mg/kg/injection, schedule: Q01DX009 (ip), vehicle: distilled water + Tween-80) was 101 % of control. In addition, the T/C under setting [4] was 105 % of control; the T/C (dose: 100.0 mg/kg/injection, schedule: Q01DX009 (ip), vehicle: saline) was 104 % of control and 108 % of control; the T/C (dose: 200.0 mg/kg/injection, schedule: Q01DX009 (ip), vehicle: distilled water + Tween-80) was 107 % of control; the T/C under setting [5] is 104 % of control; the T/C (dose: 200.0 mg/kg/injection, schedule: Q01DX009 (ip), vehicle: saline) is 100 % of control and 92 % of control.

`Cc1cc(N)c([N+](=O)[O-])cc1C`: the T/C is 101 % of control under setting [3]; 100 % of control under setting [4]; 96 % of control under setting [5]; 95 % of control (dose: 400.0 mg/kg/injection, schedule: Q01DX009 (ip), vehicle: saline with Tween-80).

Regarding `CCOC(=O)C1Cc2c([nH]c(=O)[nH]c2=O)OC1c1ccc([N+](=O)[O-])cc1` (stereo unspecified), the T/C is, setting by setting: under setting [6], 97 % of control; under setting [7], 89 % of control; under setting [8], 94 % of control.

With `N=C1SC23CCCN2C(=O)C2(CCCN2C3=O)S1`, the T/C was 96 % of control (dose: 100.0 mg/kg/injection, schedule: Q01DX001 (ip), vehicle: saline); 92 % of control (dose: 200.0 mg/kg/injection, schedule: Q01DX001 (ip), vehicle: saline); 92 % of control (dose: 400.0 mg/kg/injection, schedule: Q01DX001 (ip), vehicle: saline).

`CSc1nccc(=O)n1-c1ccccc1`: the T/C runs as follows: (dose: 100.0 mg/kg/injection, schedule: Q04DX003 (ip), vehicle: Klucel (hydroxypropylcellulose) (HPC)) 91 % of control; (dose: 200.0 mg/kg/injection, schedule: Q04DX003 (ip), vehicle: Klucel (hydroxypropylcellulose) (HPC)) 92 % of control.

For the molecule `O=C1NC(=O)N(c2ccccc2)C(=O)/C1=C/c1ccc2c(c1)CCC2`, the T/C is 95 % of control (dose: 60.0 mg/kg/injection, schedule: Q01DX005 (ip), vehicle: Klucel (hydroxypropylcellulose) (HPC)); 97 % of control (dose: 120.0 mg/kg/injection, schedule: Q01DX005 (ip), vehicle: Klucel (hydroxypropylcellulose) (HPC)); 108 % of control (dose: 240.0 mg/kg/injection, schedule: Q01DX005 (ip), vehicle: Klucel (hydroxypropylcellulose) (HPC)).

`COC(=O)C12CC=CCC1(C(=O)OC)CC=CC2` (stereo unspecified): the T/C reads like this: (dose: 50.0 mg/kg/injection, schedule: Q01DX009 (ip), vehicle: Klucel (hydroxypropylcellulose) (HPC)) 101 % of control; (dose: 100.0 mg/kg/injection, schedule: Q01DX009 (ip), vehicle: Klucel (hydroxypropylcellulose) (HPC)) 100 % of control; (dose: 200.0 mg/kg/injection, schedule: Q01DX009 (ip), vehicle: Klucel (hydroxypropylcellulose) (HPC)) 102 % of control.

Take `C#CC(OS(=O)(=O)C(F)(F)F)=C(C)C`: the T/C was 99 % of control (dose: 50.0 mg/kg/injection, schedule: Q01DX005 (ip), vehicle: saline with Tween-80); 100 % of control (dose: 100.0 mg/kg/injection, schedule: Q01DX005 (ip), vehicle: saline with Tween-80); 100 % of control (dose: 200.0 mg/kg/injection, schedule: Q01DX005 (ip), vehicle: saline with Tween-80).

`C[n+]1c(-c2cccc(OCCCCCCCCOc3cccc(-c4c5cc(N)ccc5c5ccc(N)cc5[n+]4C)c3)c2)c2cc(N)ccc2c2ccc(N)cc21`: the T/C runs as follows: (dose: 0.09 mg/kg/injection, schedule: Q01DX009 (ip), vehicle: water) 163 % of control; (dose: 0.19 mg/kg/injection, schedule: Q01DX009 (ip), vehicle: water) 154 % of control; (dose: 0.38 mg/kg/injection, schedule: Q01DX009 (ip), vehicle: water) 151 % of control; (dose: 0.39 mg/kg/injection, schedule: Q01DX009 (ip), vehicle: water) 170 % of control; (dose: 0.75 mg/kg/injection, schedule: Q01DX009 (ip), vehicle: water) 150 % of control; (dose: 0.78 mg/kg/injection, schedule: Q01DX009 (ip), vehicle: water) 179 % of control. Moreover, the T/C reads like this: (dose: 1.5 mg/kg/injection, schedule: Q01DX009 (ip), vehicle: water) 91 % of control; (dose: 1.56 mg/kg/injection, schedule: Q01DX009 (ip), vehicle: water) 213 % of control.

`COc1ccc(/C=C2/C(=O)ON=C2C)cc1OC`: the T/C reads like this: (dose: 60.0 mg/kg/injection, schedule: Q01DX005 (ip), vehicle: saline with Tween-80) 99 % of control; (dose: 120.0 mg/kg/injection, schedule: Q01DX005 (ip), vehicle: saline with Tween-80) 96 % of control; (dose: 240.0 mg/kg/injection, schedule: Q01DX005 (ip), vehicle: saline with Tween-80) 96 % of control.

Take `CCOC1=C(CC)C(=O)c2ccccc2C1=O`: the T/C is 100 % of control under setting [6], 100 % of control under setting [7] and 107 % of control under setting [8].

As to `Cc1cc2c(cc1C)-c1c(oc3cc(C)c(C)cc13)-c1ccccc1C(=O)O2`, the T/C was 94 % of control under setting [3], 97 % of control under setting [4] and 97 % of control under setting [5].

Regarding `N#CCc1csc2ccccc12`, the T/C runs as follows: under setting [6], 117 % of control; under setting [7], 115 % of control; under setting [8], 112 % of control.

For the molecule `CCC(=O)C12CCCC1=NC(=N)N=C2C1=NC(=N)N=C2CCCC21C(=O)CC` (stereo unspecified), the T/C was 102 % of control (dose: 60.0 mg/kg/injection, schedule: Q01DX005 (ip), vehicle: saline); 108 % of control (dose: 120.0 mg/kg/injection, schedule: Q01DX005 (ip), vehicle: saline); 88 % of control (dose: 240.0 mg/kg/injection, schedule: Q01DX005 (ip), vehicle: saline).

As for `CCOC(=O)c1ccc(NC(=O)Nc2cnccn2)cc1`, the T/C runs as follows: under setting [1], 92 % of control; under setting [2], 93 % of control; under setting [3], 86 % of control and 91 % of control; under setting [4], 95 % of control; under setting [5], 90 % of control.

In the case of `CCCCCCCCCCCC1(O)OC(=O)C(C)=C1C` (stereo unspecified), the T/C was 101 % of control (dose: 12.5 mg/kg/injection, schedule: Q04DX003 (ip), vehicle: saline with Tween-80); 108 % of control (dose: 25.0 mg/kg/injection, schedule: Q04DX003 (ip), vehicle: saline with Tween-80); 103 % of control (dose: 50.0 mg/kg/injection, schedule: Q04DX003 (ip), vehicle: saline with Tween-80).

The values above are taken from PubChem BioAssay AID330 (DTP/NCI, 2004).
